Assay results taken from ChEMBL document CHEMBL1201862, “PubChem BioAssay data set” (2004).
Active and inactive are the calls of the source.

Key:
cells [1] = type: functional, cell-based
[2] = target: T1, Trace amine-associated receptor 1 (Homo sapiens, UniProt Q96RJ0); assay: Fluorescence-based cell-based high throughput dose response assay to identify agonists of the human trace amine associated receptor 1 (TAAR1).; type: functional
T1 sequence (Q96RJ0 whole entry): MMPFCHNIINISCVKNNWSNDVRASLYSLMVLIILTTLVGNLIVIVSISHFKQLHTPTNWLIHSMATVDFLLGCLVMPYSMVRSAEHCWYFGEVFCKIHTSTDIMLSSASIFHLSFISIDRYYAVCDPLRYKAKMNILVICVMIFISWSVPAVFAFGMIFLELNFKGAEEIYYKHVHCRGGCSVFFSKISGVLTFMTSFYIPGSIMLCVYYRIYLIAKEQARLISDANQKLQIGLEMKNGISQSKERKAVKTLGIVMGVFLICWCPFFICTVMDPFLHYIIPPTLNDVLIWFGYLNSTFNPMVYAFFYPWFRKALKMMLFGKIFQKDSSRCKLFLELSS

[3] = target: T1, Trace amine-associated receptor 1; assay: Counterscreen for agonists of the human trace amine associated receptor 1 (hTAAR1): Fluorescence-based cell-based high throughput dose response assay to identify hTAAR1 agonist that also desensitize TAAR1 receptor response.; type: functional
cells [4] = type: functional, cell-based; remark: listed apart in the source
[5] = target: T2, Mannose-6-phosphate isomerase (Homo sapiens, UniProt P34949); assay: PMI enzyme inhibitors, confirmation, biochemical, fluorescence intensity (AID 1535)
T2 sequence (P34949 whole entry): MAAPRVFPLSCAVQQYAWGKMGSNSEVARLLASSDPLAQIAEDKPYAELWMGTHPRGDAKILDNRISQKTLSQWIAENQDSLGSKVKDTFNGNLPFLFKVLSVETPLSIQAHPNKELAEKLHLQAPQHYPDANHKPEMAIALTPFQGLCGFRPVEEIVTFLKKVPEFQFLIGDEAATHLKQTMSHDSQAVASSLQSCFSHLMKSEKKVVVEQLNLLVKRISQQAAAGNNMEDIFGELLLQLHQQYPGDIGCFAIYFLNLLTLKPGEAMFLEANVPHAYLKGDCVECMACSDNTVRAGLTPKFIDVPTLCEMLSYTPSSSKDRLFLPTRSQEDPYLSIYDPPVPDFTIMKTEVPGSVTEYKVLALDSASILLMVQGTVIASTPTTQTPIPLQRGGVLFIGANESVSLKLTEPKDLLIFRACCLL

Phosphomannomutase 2 = target: T3, Phosphomannomutase 2 (Homo sapiens, UniProt O15305); assay: Counter screen SAR assay for PMM2 inhibitors via a fluorescence intensity assay. [Related pubchem assays (depositor defined):AID1545, AID1574]
T3 sequence (O15305 whole entry): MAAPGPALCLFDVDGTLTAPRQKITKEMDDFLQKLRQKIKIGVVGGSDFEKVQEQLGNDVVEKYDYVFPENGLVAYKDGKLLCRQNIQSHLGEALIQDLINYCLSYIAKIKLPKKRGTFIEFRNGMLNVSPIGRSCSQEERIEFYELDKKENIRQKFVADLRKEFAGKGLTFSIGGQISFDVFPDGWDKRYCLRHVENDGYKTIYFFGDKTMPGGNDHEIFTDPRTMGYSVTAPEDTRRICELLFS

Escherichia coli = assay: microbe, parasite or virus in culture
[6] = target: Voltage-dependent T-type calcium channel subunit alpha-1H (Homo sapiens, UniProt O95180); type: functional;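 note: channel activity triggered by adding a high calcium stimulation buffer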
[7] = target: T4, Short transient receptor potential channel 4 (Mus musculus, UniProt Q9QUQ5); assay: mouse TRPC4 channel activators, dose response, cell-based, HEK293 TRPC4/mu-opioid, Fluo-4 calcium (AID 434937); type: functional
T4 sequence (Q9QUQ5 whole entry): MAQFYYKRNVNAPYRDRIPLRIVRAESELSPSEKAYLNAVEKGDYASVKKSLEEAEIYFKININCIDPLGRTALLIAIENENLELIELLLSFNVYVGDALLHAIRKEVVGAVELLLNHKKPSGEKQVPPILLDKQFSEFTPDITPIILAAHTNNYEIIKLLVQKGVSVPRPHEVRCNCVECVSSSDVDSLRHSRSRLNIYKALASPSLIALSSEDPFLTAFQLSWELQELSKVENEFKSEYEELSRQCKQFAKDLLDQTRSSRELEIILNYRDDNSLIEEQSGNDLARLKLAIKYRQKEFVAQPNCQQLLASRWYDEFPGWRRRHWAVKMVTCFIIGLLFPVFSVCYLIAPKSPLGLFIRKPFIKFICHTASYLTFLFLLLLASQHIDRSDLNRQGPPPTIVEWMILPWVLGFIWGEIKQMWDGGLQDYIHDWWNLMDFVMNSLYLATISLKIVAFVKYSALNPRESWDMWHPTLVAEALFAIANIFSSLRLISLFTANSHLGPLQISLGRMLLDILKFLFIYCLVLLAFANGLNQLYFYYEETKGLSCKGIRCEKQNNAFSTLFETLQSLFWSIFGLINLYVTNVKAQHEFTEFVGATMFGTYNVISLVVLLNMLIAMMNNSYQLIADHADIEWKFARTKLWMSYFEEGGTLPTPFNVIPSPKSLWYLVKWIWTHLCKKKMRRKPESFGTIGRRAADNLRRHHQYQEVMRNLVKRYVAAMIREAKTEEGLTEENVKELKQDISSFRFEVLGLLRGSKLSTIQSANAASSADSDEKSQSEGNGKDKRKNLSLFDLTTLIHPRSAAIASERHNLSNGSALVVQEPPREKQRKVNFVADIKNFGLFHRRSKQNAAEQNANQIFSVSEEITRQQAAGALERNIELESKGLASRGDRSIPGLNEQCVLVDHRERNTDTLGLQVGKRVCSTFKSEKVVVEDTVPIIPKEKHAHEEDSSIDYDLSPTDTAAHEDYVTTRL

Beta-galactosidase = Beta-galactosidase (Escherichia coli, UniProt Q8VNN2); assay: Dose response counterscreen for EBI2 assay utilizing the enzyme, b-galactosidase.; type: functional
[8] = target: T5, RNA-binding protein pos-1 (Caenorhabditis elegans, UniProt G5EF15); assay: inhibitors of POS-1/mex-3 RNA binding, dose response, biochemical, fluorescence polarization (AID 1964);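 note: purified POS-1 fused to maltose binding protein made in E. coli; potency of compounds blocking POS-1 binding to fluorescent RNA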
T5 sequence (G5EF15 whole entry): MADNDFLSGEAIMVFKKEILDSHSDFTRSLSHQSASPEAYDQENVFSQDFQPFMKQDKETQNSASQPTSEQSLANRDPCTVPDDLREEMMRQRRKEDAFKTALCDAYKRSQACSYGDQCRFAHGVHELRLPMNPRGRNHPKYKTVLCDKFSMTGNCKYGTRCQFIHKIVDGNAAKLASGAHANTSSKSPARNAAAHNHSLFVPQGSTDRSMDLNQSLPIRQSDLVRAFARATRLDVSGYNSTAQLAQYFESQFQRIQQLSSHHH

[9] = target: T6, Zinc finger protein mex-5 (Caenorhabditis elegans, UniProt Q9XUB2); assay: MEX-5/TCR-2 RNA interaction inhibitors, dose response, biochemical, C. elegans, fluorescence polarization (AID 1960)
T6 sequence (Q9XUB2 whole entry): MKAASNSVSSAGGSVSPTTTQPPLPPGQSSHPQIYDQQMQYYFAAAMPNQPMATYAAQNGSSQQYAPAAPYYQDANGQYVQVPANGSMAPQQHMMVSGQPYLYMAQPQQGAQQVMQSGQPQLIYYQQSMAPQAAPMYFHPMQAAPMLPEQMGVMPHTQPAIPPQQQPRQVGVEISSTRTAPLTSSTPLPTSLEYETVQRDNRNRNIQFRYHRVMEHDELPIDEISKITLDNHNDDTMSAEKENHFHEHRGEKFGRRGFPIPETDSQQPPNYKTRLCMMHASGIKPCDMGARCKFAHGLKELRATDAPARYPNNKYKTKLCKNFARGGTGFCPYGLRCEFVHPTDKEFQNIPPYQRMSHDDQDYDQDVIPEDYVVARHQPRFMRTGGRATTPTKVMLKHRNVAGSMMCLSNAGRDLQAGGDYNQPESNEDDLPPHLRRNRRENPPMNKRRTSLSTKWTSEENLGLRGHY

Genome polyprotein = Genome polyprotein (dengue virus type 2, UniProt P29990); assay: Dengue-2 NS5 methyltransferase inhibitors, primary screen, biochemical, confirmation dose response (AID 588689); type: functional
Cytochrome P450 3A4 = Cytochrome P450 3A4 (Homo sapiens, UniProt P08684);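 note: CYP3A4 tested as one member of a cytochrome P450 panel screen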
Cytochrome P450 2C9 = Cytochrome P450 2C9 (Homo sapiens, UniProt P11712)
[10] = NIH-3T3 fibroblast cytotoxicity, dose response, cytotoxicity control, cell-based, fluorescence, Alamar Blue, secondary assay (AID 2327); type: functional;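 note: NIH-3T3 mouse fibroblasts cultured with fluconazole at 8 µg/mL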
[11] = C. albicans growth with fluconazole, confirmation, fluorescence, retest (AID 2467); type: functional, cell-based
Fatty acid synthase = Fatty acid synthase (Homo sapiens, UniProt P49327); assay: FAS thioesterase domain inhibitors, dose response, biochemical, kinetic fluorescence intensity (AID 624326); type: functional;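 note: rate of fluorescence rise from hydrolysis of a fluorogenic O-methyl fluorescein ester substrate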

Chain of Beta-galactosidase (Q8VNN2 whole entry, the tested form may be a part): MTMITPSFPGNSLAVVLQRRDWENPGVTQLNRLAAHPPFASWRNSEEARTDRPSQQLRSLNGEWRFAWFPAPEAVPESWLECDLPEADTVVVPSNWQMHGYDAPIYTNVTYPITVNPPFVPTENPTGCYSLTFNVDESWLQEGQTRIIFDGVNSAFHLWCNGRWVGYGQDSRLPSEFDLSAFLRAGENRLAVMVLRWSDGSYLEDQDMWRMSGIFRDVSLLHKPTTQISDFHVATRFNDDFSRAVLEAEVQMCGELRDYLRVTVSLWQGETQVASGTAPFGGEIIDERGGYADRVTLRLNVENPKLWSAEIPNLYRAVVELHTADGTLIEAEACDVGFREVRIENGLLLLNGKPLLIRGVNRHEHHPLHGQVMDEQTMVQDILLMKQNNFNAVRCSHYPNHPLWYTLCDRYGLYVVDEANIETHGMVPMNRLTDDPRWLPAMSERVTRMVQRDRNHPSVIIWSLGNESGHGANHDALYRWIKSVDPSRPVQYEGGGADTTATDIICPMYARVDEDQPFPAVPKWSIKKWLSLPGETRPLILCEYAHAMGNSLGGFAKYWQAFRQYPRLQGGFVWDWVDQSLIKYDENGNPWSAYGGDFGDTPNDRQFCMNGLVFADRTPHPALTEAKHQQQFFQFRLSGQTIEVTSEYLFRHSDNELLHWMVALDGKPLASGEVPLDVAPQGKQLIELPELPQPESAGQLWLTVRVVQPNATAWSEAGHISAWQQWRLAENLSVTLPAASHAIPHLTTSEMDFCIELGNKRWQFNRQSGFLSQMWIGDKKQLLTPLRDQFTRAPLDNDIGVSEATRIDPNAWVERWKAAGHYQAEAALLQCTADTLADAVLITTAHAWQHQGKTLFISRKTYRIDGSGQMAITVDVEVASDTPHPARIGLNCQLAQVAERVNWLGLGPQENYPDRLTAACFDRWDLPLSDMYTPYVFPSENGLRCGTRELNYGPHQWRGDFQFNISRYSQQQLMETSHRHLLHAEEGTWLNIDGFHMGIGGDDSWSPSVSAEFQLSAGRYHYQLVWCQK
Chain of Voltage-dependent T-type calcium channel subunit alpha-1H (O95180 whole entry): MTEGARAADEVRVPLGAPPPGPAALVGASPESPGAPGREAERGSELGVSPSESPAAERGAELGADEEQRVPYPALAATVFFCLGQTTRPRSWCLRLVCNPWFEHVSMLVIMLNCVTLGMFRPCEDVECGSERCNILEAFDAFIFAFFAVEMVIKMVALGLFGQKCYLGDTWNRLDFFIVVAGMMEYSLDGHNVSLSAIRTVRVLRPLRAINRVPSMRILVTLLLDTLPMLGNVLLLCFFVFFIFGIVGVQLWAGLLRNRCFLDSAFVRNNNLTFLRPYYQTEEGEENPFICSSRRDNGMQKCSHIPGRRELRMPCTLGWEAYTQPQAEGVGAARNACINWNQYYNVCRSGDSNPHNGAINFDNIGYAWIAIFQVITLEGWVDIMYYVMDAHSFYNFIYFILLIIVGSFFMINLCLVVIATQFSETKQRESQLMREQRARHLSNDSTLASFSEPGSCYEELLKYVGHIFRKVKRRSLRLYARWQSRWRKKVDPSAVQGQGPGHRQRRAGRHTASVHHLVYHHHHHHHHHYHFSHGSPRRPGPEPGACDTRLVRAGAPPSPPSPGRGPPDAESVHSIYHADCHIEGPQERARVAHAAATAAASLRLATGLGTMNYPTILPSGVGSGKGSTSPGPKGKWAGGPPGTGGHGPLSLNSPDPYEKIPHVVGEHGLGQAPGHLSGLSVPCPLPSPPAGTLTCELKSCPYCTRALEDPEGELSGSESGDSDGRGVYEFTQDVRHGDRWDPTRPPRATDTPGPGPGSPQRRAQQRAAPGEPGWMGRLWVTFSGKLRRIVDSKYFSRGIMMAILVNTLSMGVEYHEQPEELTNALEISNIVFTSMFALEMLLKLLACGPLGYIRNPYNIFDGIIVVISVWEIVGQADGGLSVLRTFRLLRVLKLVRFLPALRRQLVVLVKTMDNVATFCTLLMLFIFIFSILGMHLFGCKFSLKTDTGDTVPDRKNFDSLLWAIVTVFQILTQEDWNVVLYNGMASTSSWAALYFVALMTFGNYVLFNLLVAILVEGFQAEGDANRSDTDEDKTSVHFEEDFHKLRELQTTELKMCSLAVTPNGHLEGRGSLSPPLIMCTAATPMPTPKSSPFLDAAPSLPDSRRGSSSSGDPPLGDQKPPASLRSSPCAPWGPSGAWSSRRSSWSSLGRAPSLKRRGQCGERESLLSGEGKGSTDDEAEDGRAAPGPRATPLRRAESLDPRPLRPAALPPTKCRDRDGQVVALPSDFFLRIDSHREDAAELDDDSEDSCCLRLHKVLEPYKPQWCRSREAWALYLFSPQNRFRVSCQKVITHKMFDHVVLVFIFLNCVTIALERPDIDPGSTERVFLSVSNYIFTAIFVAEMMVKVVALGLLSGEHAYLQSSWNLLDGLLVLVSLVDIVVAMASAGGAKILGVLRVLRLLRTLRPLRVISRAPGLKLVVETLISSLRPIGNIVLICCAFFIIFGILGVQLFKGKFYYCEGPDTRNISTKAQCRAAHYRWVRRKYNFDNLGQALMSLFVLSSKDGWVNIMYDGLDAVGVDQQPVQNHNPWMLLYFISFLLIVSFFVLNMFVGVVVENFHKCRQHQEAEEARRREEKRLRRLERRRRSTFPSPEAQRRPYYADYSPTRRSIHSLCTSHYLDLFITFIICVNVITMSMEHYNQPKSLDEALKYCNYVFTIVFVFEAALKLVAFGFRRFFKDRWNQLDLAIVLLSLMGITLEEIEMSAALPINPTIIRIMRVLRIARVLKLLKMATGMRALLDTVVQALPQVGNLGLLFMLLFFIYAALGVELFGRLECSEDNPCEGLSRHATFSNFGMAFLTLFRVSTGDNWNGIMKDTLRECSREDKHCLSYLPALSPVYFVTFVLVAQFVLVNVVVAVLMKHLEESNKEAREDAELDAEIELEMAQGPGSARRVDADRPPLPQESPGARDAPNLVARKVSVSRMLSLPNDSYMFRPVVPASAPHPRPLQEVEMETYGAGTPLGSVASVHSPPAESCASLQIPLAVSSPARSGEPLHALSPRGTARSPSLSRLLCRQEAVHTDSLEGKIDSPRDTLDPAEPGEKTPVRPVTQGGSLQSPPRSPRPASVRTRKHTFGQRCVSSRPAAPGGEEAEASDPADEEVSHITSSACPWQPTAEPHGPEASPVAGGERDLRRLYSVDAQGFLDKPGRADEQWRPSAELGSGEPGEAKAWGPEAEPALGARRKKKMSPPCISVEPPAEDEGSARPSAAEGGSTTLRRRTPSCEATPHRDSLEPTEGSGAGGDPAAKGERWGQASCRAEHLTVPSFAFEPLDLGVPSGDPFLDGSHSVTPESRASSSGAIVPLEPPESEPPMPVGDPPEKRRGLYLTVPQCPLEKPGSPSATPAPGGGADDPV
Chain of Cytochrome P450 3A4 (P08684 whole entry): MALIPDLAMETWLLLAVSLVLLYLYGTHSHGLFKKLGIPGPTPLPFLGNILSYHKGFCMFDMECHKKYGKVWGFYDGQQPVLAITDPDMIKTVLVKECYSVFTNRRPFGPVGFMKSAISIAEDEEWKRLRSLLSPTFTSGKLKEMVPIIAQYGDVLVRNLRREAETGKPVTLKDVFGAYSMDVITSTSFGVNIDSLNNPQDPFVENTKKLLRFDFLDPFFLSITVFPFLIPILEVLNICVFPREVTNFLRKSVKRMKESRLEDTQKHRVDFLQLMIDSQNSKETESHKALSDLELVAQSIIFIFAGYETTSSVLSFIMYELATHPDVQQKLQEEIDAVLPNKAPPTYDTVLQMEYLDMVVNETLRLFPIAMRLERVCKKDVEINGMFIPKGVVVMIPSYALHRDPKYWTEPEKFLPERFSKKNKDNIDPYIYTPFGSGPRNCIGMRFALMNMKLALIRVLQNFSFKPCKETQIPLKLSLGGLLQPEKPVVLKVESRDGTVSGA
Chain of Genome polyprotein (P29990 2492-3391 limits assumed): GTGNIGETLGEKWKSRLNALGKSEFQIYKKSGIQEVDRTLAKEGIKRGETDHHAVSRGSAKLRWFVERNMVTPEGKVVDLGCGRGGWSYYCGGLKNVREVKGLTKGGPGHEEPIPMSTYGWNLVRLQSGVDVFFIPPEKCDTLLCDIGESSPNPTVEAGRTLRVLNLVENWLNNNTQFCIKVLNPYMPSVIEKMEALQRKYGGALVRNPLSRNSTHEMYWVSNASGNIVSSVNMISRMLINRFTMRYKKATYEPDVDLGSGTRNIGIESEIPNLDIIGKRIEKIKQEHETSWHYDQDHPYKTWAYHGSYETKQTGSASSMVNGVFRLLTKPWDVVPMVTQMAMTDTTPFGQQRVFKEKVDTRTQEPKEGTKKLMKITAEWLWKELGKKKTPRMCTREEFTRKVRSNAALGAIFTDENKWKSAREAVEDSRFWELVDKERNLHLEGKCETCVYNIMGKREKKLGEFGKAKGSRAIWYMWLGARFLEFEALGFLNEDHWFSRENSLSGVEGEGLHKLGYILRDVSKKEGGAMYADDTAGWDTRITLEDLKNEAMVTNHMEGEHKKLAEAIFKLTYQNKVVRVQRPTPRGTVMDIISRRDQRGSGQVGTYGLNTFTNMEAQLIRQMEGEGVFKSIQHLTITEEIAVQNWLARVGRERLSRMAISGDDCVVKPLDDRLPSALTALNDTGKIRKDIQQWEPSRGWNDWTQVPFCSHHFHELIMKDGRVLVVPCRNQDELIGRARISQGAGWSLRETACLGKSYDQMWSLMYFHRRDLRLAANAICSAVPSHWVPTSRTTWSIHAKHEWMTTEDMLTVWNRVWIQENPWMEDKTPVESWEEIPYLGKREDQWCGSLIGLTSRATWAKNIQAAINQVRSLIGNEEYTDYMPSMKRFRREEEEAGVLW

SMILES: COc1ccc(NS(=O)(=O)c2ccc(NC(=S)NC(=O)C(C)C)cc2)cc1
- IC50 (cells [1]): 11.5 µM (inactive)
- EC50 [2]: 1.99 µM (active)
- IC50 [3]: 6.23 µM (active)
- EC50 (cells [4]): 19 µM (inactive)

SMILES: Cc1ccc2nc(-n3sc4ccccc4c3=O)sc2c1
- IC50 [5]: > 50 µM (inactive)
- IC50 (Phosphomannomutase 2): > 100 µM (inactive)

SMILES: CCCNC(=O)c1cn(CC)c2cc(N3CCN(C)CC3)c(F)cc2c1=O
- AC50 (Escherichia coli): 2.04 µM (active)

SMILES: CCOC(=O)c1sc(NC(=O)C(CC)OC(=O)C(CC(C)C)NC(=O)c2ccccc2)nc1C (stereo not drawn)
- EC50 [6]: 5.2 µM (active)

SMILES: Cc1cc(C)n(CCCNC(=O)COc2ccc([N+](=O)[O-])cc2)n1
- AC50 (Escherichia coli): 89.1 µM (active)

SMILES: O=S(=O)(NCCc1csc(-c2ccccc2)n1)c1cccnc1
- EC50 [7]: 3.76 µM (active)

SMILES: O=C(c1cc(=O)c2cc(Cl)ccc2o1)N1CCN(Cc2ccccc2)CC1
- IC50 (Beta-galactosidase): > 80 µM (inactive)

SMILES: COc1ccc(N(CC(=O)NCCSc2ccccc2)S(=O)(=O)c2ccccc2)cc1
- IC50 (Beta-galactosidase): > 80 µM (inactive)

SMILES: CCC(=O)OC1(C)C(=O)C=C2C=C(C3CC3)OC=C2C1=O (stereo not drawn)
- EC50 [8]: > 300 µM (not active)
- EC50 [9]: 30.4 µM (active)
- IC50 (Genome polyprotein): > 100 µM (active)

SMILES: O=C(CN1CCCCCC1)N1c2ccccc2Sc2ccc(C(F)(F)F)cc21
- EC50 [6]: 7.61 µM (active)

SMILES: O=C(c1nc(C(F)(F)F)[nH]c1-c1ccccc1)N1CCc2ccccc2C1
- IC50 (cells [1]): > 29.9 µM (inactive)
- EC50 [2]: 2.77 µM (active)
- IC50 [3]: 9.85 µM (active)
- EC50 (cells [4]): > 29.9 µM (inactive)

SMILES: CCOc1ccc(NC(=O)c2ccc(NC(=O)c3cn4c5c(c(N6CCN(C)CC6)c(F)cc5c3=O)OCC4C)cc2)cc1 (stereo not drawn)
- AC50 (Escherichia coli): 0.645 µM (active)

SMILES: C[C@H]1CCCC=CC2C[C@H](OC(=O)CN(C)C)C[C@@H]2[C@@H](O)/C=C\C(=O)O1 (stereo partly drawn)
- AC50 (Cytochrome P450 3A4): inconclusive
- AC50 (Cytochrome P450 2C9): inconclusive

SMILES: CC(C)[C@H](NC(=O)c1ccc(Cl)c(Cl)c1)C(=O)N1CCC[C@H]1C(=O)NCCc1ccccc1Cl
- IC50 (cells [1]): > 29.9 µM (inactive)
- EC50 [2]: 1.45 µM (active)
- IC50 [3]: 1.53 µM (active)
- EC50 (cells [4]): > 29.9 µM (inactive)

SMILES: Cc1csc2c(N3CCN(C(S)=Nc4ccc(C(F)(F)F)cc4)CC3)ncnc12
- EC50 [7]: 1.68 µM (active)

SMILES: Cc1ccc2[nH]cc(CCNC(=O)Nc3ccccc3)c2c1
- EC50 [6]: 5.23 µM (active)

SMILES: O=C(NCCCN1CCN(c2cccc(Cl)c2)CC1)C1(S(=O)(=O)c2ccc(Cl)cc2)CC1
- EC50 [6]: 6.17 µM (active)

SMILES: O=[N+]([O-])c1ccc(/N=c2\ssnc2Cl)c2ccccc12
- IC50 [5]: > 100 µM (inactive)
- IC50 (Phosphomannomutase 2): > 100 µM (inactive)

SMILES: CN(C)c1ccc(/N=c2\ssnc2Cl)cc1
- IC50 [5]: 12.4 µM (active)
- IC50 (Phosphomannomutase 2): > 100 µM (inactive)

SMILES: Cc1cc(C)c2cc(C#N)c(N3CCNCC3)nc2c1
- IC50 (cells [1]): > 30 µM (inactive)
- EC50 [2]: 1.55 µM (active)
- IC50 [3]: 4.28 µM (active)
- EC50 (cells [4]): > 30 µM (inactive)

SMILES: O=C(NCCc1ccccn1)c1ccc(OC2CCN(CCc3ccccc3)CC2)cc1
- EC50 [7]: 1.19 µM (active)

SMILES: Cc1cc(C)c(S(=O)(=O)N2CCN(C(=O)c3cc4ccccc4o3)CC2)c(C)c1
- IC50 (Beta-galactosidase): > 80 µM (inactive)

SMILES: Cc1ccc(S(=O)(=O)N(CC(=O)N2CCN(c3ccccc3F)CC2)C2CCCCC2)cc1
- EC50 [6]: 2.58 µM (active)

SMILES: COc1ccccc1N1CCN(C(=O)c2cc3cc(Cl)ccc3[nH]2)CC1
- EC50 [10]: 38.6 µM (active)
- EC50 [11]: > 38 µM (not active)
- IC50 (Beta-galactosidase): > 80 µM (inactive)

SMILES: CN(C)CCCN(C(=O)c1ccc(S(=O)(=O)N2CCc3ccccc32)cc1)c1nc2ccc(F)cc2s1
- EC50 [7]: 2.66 µM (active)

SMILES: O=C(Nc1nc2c(s1)CCCC2)c1cccc(S(=O)(=O)N2CCCc3ccccc32)c1
- AC50 (Escherichia coli): 134 µM (active)

SMILES: CCN1CCN(C(=O)C(NS(=O)(=O)c2ccc3nc(C)sc3c2)C(C)C)CC1 (stereo not drawn)
- AC50 (Escherichia coli): > 150 µM (inactive)

SMILES: COCc1cc(C)nc(SCC[N+](C)(C)CC(=O)Nc2ccccc2)c1C#N
- IC50 (Fatty acid synthase): 12.4 µM (active)
